Results as given in patent US20250215030A1, “STAT MODULATORS AND USES THEREOF” (Recludix Pharma, Inc., priority 2022, published 2025).
pIC50: −log10 of the molar value.

These molecules were tested against T1, pSTAT3 (pY705-STAT3) (Homo sapiens, UniProt P40763) (assay: MSD-pSTAT-PBMC Assay (pSTAT3, IL-6 stimulated)). Conditions: not given.
T1 construct: host or cells: cryopreserved PBMC
Format: cell-based
Excerpt: Cryopreserved Peripheral Blood Mononuclear Cells (PBMC) are from AllCells. Recombinant Human IL-4 and IL-6 are from Peprotech. Mouse monoclonal anti-STAT3 antibody, rabbit monoclonal anti-pY705-STAT3 antibody, rabbit monoclonal Anti-pY641-STAT6 antibody, and lysis buffer are from Cell Signaling Technology (CST). Mouse monoclonal anti-STAT6 antibody is from BioLegend. Assay plates, blocker, and anti-rabbit secondary antibody are from Meso Scale Discovery (MSD).
Cryopreserved PBMCs were thawed out and allowed to recover overnight in IMDM+10% heat-inactivated FBS prior to plating 50,000 (STAT3) or 25,000 (STAT6) cells per well in 96-well U-bottom tissue culture plates. Cells were treated with compound for 3 hrs, then stimulated with 10 ng/mL IL-6 (STAT3) or 1 ng/mL IL-4 (STAT6) for 10 min. Cells were then spun down and washed with ice-cold PBS prior to lysing the cell pellet with 1× lysis buffer (CST) with 1× HALT protease and phosphatase inhibitor cocktail (Thermo). Lysates were transferred to and incubated overnight at 4° C. with shaking in QuickPlex 96-well high bind assay plates (MSD) pre-coated overnight with 30 μL per well of 0.6 μg/mL mouse monoclonal anti-STAT3 antibody (STAT3) or 2 μg/mL mouse monoclonal anti-STAT6 antibody (STAT6) in 1×PBS, and pre-blocked for 1 hour with 3% Blocker-A (MSD). Captured protein in the assay plates were then washed and probed with 25 μL per well of 0.25 μg/ml rabbit monoclonal anti-pY705-STAT3 antibody (STAT3) or 0.18 μg/ml rabbit monoclonal Anti-pY641-STAT6 antibody (STAT6) in 1% Blocker-A for 1 hour at room temperature with shaking, then washed and probed with 25 ul per well of 1 ug/mi Sulfo-TAG Labeled Goat Anti-Rabbit Antibody (MSD) in 1% Blocker-A for 1 hour at room temperature with shaking. Assay plates were then washed and 150 μL of 1× Read Buffer-T (MSD) was added to each well prior to reading on an SQ120 MSD Plate Reader. Assay signal from each sample was subtracted by the signal from unstimulated control wells and normalized to DMSO control wells. IC50 values were calculated using Graph Pad Prism Dose-Response Nonlinear Regression with variable slope. For both pSTAT3 and pSTAT6 A=≤100 nM; B=>100-1000 nM; C=>1000-3000 nM; and D=>3 μM.

T1 sequence (P40763 whole entry): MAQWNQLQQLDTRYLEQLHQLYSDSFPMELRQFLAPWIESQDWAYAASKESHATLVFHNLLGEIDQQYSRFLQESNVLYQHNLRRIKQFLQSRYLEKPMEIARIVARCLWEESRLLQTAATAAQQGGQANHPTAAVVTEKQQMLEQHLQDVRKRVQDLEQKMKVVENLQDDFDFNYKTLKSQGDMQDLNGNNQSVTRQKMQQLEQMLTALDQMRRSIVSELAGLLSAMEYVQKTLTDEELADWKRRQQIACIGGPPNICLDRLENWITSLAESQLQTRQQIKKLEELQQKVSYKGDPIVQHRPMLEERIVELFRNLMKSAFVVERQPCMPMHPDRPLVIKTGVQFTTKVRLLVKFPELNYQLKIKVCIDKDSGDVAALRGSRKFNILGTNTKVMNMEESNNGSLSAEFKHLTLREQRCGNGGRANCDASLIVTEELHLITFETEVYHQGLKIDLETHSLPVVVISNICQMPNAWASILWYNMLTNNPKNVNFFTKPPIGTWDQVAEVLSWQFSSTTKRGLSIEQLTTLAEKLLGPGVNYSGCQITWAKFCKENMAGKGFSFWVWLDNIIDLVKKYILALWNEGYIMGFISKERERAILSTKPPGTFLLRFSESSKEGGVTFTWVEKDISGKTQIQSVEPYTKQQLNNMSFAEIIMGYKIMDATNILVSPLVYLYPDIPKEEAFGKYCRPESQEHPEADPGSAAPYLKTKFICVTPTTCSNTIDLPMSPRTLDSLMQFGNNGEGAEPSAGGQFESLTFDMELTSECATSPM

Row | Molecule | pIC50
1 | CCCOC(=O)[C@H](C)NP(=O)(Oc1ccccc1)[C@@H](F)c1ccc2sc(C(=O)N[C@H]3C[C@H]4C[C@H]4C[C@H]4CC[C@@H](C(=O)N5CC(c6cnccc6N6CC[C@H]6COC)C5)N4C3=O)cc2c1 (stereo in doubt) [Compound 417, propyl(((R)-fluoro(2-(((3S,6S,7aS,8aR,9aR)-3-(3-(4-((S)-2-(methoxymethyl)azetidin-1-yl)pyridin-3-yl)azetidine-1-carbonyl)-5-oxodecahydro-1H-cyclopropa[d]pyrrolo[1,2-a]azocin-6-yl)carbamoyl)benzo[b]thiophen-5-yl)methyl)(phenoxy)phosphoryl)-L-alaninate] | > 7.00
2 | CCCOC(=O)[C@H](C)NP(=O)(Oc1ccccc1)[C@H](F)c1ccc2sc(C(=O)N[C@H]3C[C@@H]4C[C@@H]4C[C@H]4CC[C@@H](C(=O)N5CC(c6cnccc6N6CC[C@H]6COC)C5)N4C3=O)cc2c1 (stereo partly drawn) [Compound 416, propyl(((S)-fluoro(2-(((3S,6S,7aS,8aR,9aR)-3-(3-(4-((S)-2-(methoxymethyl)azetidin-1-yl)pyridin-3-yl)azetidine-1-carbonyl)-5-oxodecahydro-1H-cyclopropa[d]pyrrolo[1,2-a]azocin-6-yl)carbamoyl)benzo[b]thiophen-5-yl)methyl)(phenoxy)phosphoryl)-L-alaninate] | > 7.00

Same assay, conditions: PBMC, compound 3 hrs, then 10 ng/mL IL-6 for 10 min; MSD pY705-STAT3; read-out: pSTAT3

Row | Molecule | pIC50
3 | CCOC(=O)[C@H](C)NC(=O)OCOP(=O)(Cc1ccc2sc(C(=O)N[C@H]3C[C@@H]4C[C@@H]4C[C@H]4CC[C@@H](C(=O)N5CC(C(=O)N6CCOCC6)C5)N4C3=O)cc2c1)OCOC(=O)N[C@@H](C)C(=O)OCC [Compound 160, diethyl 2,2′-((((((((2-(((3S, 6S,7aS,8aR, 9aR)-3-(3-(morpholine-4-carbonyl)azetidine-1-carbonyl)-5-oxodecahydro-1H-cyclopropa [d]pyrrolo[1,2-a]azocin-6-yl)carbamoyl)benzo[b]thiophen-5-yl)methyl)phosphoryl)bis(oxy))bis(methylene))bis(oxy))bis(carbonate))bis(azanediyl)) (2S,2′S)-dipropionate] | < 5.52
4 | C[C@H](OP(=O)(Oc1ccccc1)C(F)(F)c1ccc2sc(C(=O)N[C@H]3C[C@@H]4C[C@@H]4C[C@H]4CC[C@@H](C(=O)N5CC(C(=O)N6CCOCC6)C5)N4C3=O)cc2c1)C(=O)OCc1ccccc1 (stereo partly drawn) [Compound 174, benzyl (2S)-2-(((difluoro(2-(((3S,6S,7aS, 8aR,9aR)-3-(3-(morpholine-4-carbonyl)azetidine-1-carbonyl)-5-oxodecahydro-1H-cyclopropa[d]pyrrolo[1,2-a]azocin-6-yl)carbamoyl)benzo[b]thiophen-5-yl)methyl) (phenoxy)phosphoryl)oxy) propanoate] | 5.52 to 6.00
5 | CCCOC(=O)[C@H](C)NP(=O)(Cc1ccc2sc(C(=O)N[C@H]3C[C@@H]4C[C@@H]4C[C@H]4CC[C@@H](C(=O)N5CC(c6cnccc6F)C5)N4C3=O)cc2c1)Oc1ccccc1 (stereo partly drawn) [Compound 264, propyl (((2-(((3S,6S,7aS,8aR,9aR)-3-(3-(4-fluoropyridin-3-yl)azetidine-1-carbonyl)-5-oxodecahydro-1H-cyclopropa[d]pyrrolo[1,2-a]azocin-6-yl)carbamoyl)benzo[b]thiophen-5-yl)methyl)(phenoxy)phosphoryl)-L-alaninate] | > 7.00
6 | propyl(((2-(((3S,6S,8aR,9aS,9bR)-8a-methyl-5-oxo-3-(3-(pyridin-3-yl)azetidine-1-carbonyl)decahydro-1H-cyclopropa[c]pyrrolo[1,2-a]azocin-6-yl)carbamoyl)benzo[b]thiophen-5-yl)methyl)(phenoxy)phosphoryl)-L-alaninate [Compound 232] | > 7.00
7 | CCCOC(=O)[C@H](C)NP(=O)(Oc1ccccc1)C(F)c1ccc2sc(C(=O)N[C@H]3C[C@H]4C[C@H]4C[C@H]4CC[C@@H](C(=O)N5CC(c6ncccn6)C5)N4C3=O)cc2c1 (stereo partly drawn) [Compound 338, propyl ((fluoro(2-(((3S,6S,7aR,8aS,9aR)-5-oxo-3-(3-(pyrimidin-2-yl)azetidine-1-carbonyl)decahydro-1H-cyclopropa[d]pyrrolo[1,2-a]azocin-6-yl)carbamoyl)benzo[b]thiophen-5-yl)methyl)(phenoxy)phosphoryl)-L-alaninate] | > 7.00
